Here are results for 35 compounds from patent publication US12559474B2, “Triazine derivatives having virus replication inhibitory activity and pharmaceutical composition comprising the same” (priority 2021, dated 2026).

Read-outs that look alike come from different tables or passages of the source.

The target of one test is SARS-CoV-2 3CL protease (Severe acute respiratory syndrome coronavirus 2, UniProt P0DTD1). Nature of the test: biochemical. Particulars: 50% SARS-CoV-2 3CL protease inhibitory concentration, read-out: IC50.
The next test concerns SARS-CoV-2. Nature of the test: microbe, parasite or virus in culture. The format is cell-based. Particulars: Severe acute respiratory syndrome coronavirus 2, VeroE6/TMPRSS2, 72 h, 50% SARS-CoV-2 infected cell death inhibitory concentration, VeroE6/TMPRSS2 cells, 3 days culture.

The term IC50 denotes the concentration at which inhibition is half-maximal. The term EC50 denotes the midpoint of the concentration-response curve. A lower EC50 goes with an effect from little substance. In the case of `COc1ccc(Nc2nc(=O)n(Cc3ccc[nH]c3=O)c(=O)n2Cc2ccc(F)c(Cl)c2)cc1` [Compound I-0252], the IC50 at SARS-CoV-2 3CL protease (given as class symbols) was < 100 nM. The compound also had an EC50 in the test on SARS-CoV-2 (class symbols) of 1000 to 10000 nM.

For `COc1ccc(Nc2nc(=O)n(Cc3ccc[nH]c3=O)c(=O)n2Cc2ccc(F)c(C#N)c2)cc1` [Compound I-0253], the IC50 on SARS-CoV-2 3CL protease (given as class symbols) is < 100 nM. Also, the EC50 in the test on SARS-CoV-2 (class symbols) is 1000 to 10000 nM.

As for `COc1ccc(Nc2nc(=O)n(Cc3ccc[nH]c3=O)c(=O)n2Cc2cc(F)c(F)c(Cl)c2)cc1` [Compound I-0254], the IC50 on SARS-CoV-2 3CL protease (given as class symbols) is < 100 nM. Moreover, in the test with SARS-CoV-2 (class symbols), the EC50 is 1000 to 10000 nM.

As to `COc1ccc(Nc2nc(=O)n(Cc3ccc[nH]c3=O)c(=O)n2Cc2cc(F)c(F)c(Cl)c2)c(Cl)c1` [Compound I-0255], the IC50 on SARS-CoV-2 3CL protease (given as class symbols) was < 100 nM. Besides, in the test on SARS-CoV-2 (class symbols), the EC50 was < 1000 nM.

With `COc1ccc(Nc2nc(=O)n(Cc3ccc[nH]c3=O)c(=O)n2Cc2cc(F)c(F)c(F)c2F)cc1` [Compound I-0256], at SARS-CoV-2 3CL protease (given as class symbols), the IC50 is < 100 nM. This compound yielded an EC50 in the test on SARS-CoV-2 (class symbols) of 1000 to 10000 nM.

With `COc1ccc(Nc2nc(=O)n(Cc3cc(-c4ncco4)c[nH]c3=O)c(=O)n2Cc2cc(F)c(F)c(F)c2)cc1` [Compound I-0260], on SARS-CoV-2 3CL protease (given as class symbols), the IC50 was < 100 nM. In the test with SARS-CoV-2 (class symbols), this compound gave an EC50 of 1000 to 10000 nM.

In the case of `Cc1nc2cc(Cl)c(Nc3nc(=O)n(Cc4ccc[nH]c4=O)c(=O)n3Cc3cc(F)c(F)c(Cl)c3)cc2n1C` [Compound I-0264], the IC50 at SARS-CoV-2 3CL protease (given as class symbols) was < 100 nM. For the same compound, the EC50 in the test with SARS-CoV-2 (class symbols) fell in the range of 1000 to 10000 nM.

For the compound `Cn1cc2cc(Nc3nc(=O)n(Cc4ccc[nH]c4=O)c(=O)n3Cc3ccc(F)c(C#N)c3)c(Cl)cc2n1` [Compound I-0267], the IC50 on SARS-CoV-2 3CL protease (given as class symbols) is < 100 nM. The EC50 with SARS-CoV-2 (class symbols) fell in the range of 1000 to 10000 nM.

As for `N#Cc1cc(Cn2c(Nc3cc4c(cc3Cl)OCC4)nc(=O)n(Cc3cc(F)c[nH]c3=O)c2=O)ccc1F` [Compound I-0271], the IC50 at SARS-CoV-2 3CL protease (given as class symbols) was < 100 nM. The EC50 with SARS-CoV-2 (class symbols) lay in the range of 1000 to 10000 nM.

As to `O=c1[nH]cc(F)cc1Cn1c(=O)nc(Nc2cc3c(cc2Cl)OCC3)n(Cc2cc(F)c(F)c(F)c2)c1=O` [Compound I-0272], the IC50 on SARS-CoV-2 3CL protease (given as class symbols) was < 100 nM. The EC50 in the test with SARS-CoV-2 (class symbols) is < 1000 nM.

On to `O=c1[nH]cccc1Cn1c(=O)nc(Nc2cc3cccnc3cc2Cl)n(Cc2cc(F)c(F)c(F)c2)c1=O` [Compound I-0279], for which the 50% inhibitory concentration (IC50) on SARS-CoV-2 3CL protease (given as class symbols) is < 100 nM. Also, the EC50 in the test on SARS-CoV-2 (class symbols) lay within 1000 to 10000 nM.

Consider `O=c1[nH]cccc1Cn1c(=O)nc(Nc2cc3cn(CCO)nc3cc2Cl)n(Cc2cc(F)c(F)c(F)c2)c1=O` [Compound I-0281], for which the IC50 on SARS-CoV-2 3CL protease (RapidFire MS) was determined as 3.8 nM. Moreover, the EC50 in the test on SARS-CoV-2 (CellTiter-Glo 2.0) came out at 4180 nM.

Turning to `O=c1[nH]cccc1Cn1c(=O)nc(Nc2cc3cn(CC(F)F)nc3cc2Cl)n(Cc2cc(F)c(F)c(F)c2)c1=O` [Compound I-0284], the IC50 at SARS-CoV-2 3CL protease (given as class symbols) is < 100 nM. The EC50 with SARS-CoV-2 (class symbols) was < 1000 nM.

As to `COCCn1cc2cc(Nc3nc(=O)n(Cc4ccc[nH]c4=O)c(=O)n3Cc3cc(F)c(F)c(F)c3)c(Cl)cc2n1` [Compound I-0285], the IC50 at SARS-CoV-2 3CL protease (given as class symbols) is < 100 nM. For the same compound, the EC50 in the test on SARS-CoV-2 (class symbols) was 1000 to 10000 nM.

For the compound `CCCCn1cc2cc(Nc3nc(=O)n(Cc4ccc[nH]c4=O)c(=O)n3Cc3cc(F)c(F)c(F)c3)c(Cl)cc2n1` [Compound I-0286], the IC50 at SARS-CoV-2 3CL protease (given as class symbols) was < 100 nM. In the test on SARS-CoV-2 (class symbols), this compound showed an EC50 of 1000 to 10000 nM.

Take `O=c1nc(Nc2cc3cn(CCO)nc3cc2Cl)n(Cc2cc(F)c(F)c(F)c2)c(=O)n1-c1cncc2ccccc12` [Compound I-0288]: the IC50 at SARS-CoV-2 3CL protease (RapidFire MS) was 5.8 nM. For the same compound, in the test on SARS-CoV-2 (CellTiter-Glo 2.0), the response was half-maximal at 747 nM (EC50).

Take `C[C@@H](O)Cn1cc2cc(Nc3nc(=O)n(Cc4cc(Cl)c[nH]c4=O)c(=O)n3Cc3cc(F)c(F)c(F)c3)c(Cl)cc2n1` [Compound I-0290]: at SARS-CoV-2 3CL protease (given as class symbols), the IC50 is < 100 nM. This compound also returned an EC50 in the test with SARS-CoV-2 (class symbols) of 1000 to 10000 nM.

`COc1ccc(Nc2nc(=O)n(Cc3cc4ccccc4[nH]c3=O)c(=O)n2Cc2cc(F)c(F)c(F)c2)cc1` [Compound I-0306]: the IC50 at SARS-CoV-2 3CL protease (given as class symbols) is < 100 nM. Further, the EC50 with SARS-CoV-2 (class symbols) fell in the range of 1000 to 10000 nM.

Consider `COc1ccc(Nc2nc(=O)n(Cc3cc(C(F)(F)F)c[nH]c3=O)c(=O)n2Cc2cc(F)c(F)c(F)c2)cc1` [Compound I-0307], for which the IC50 on SARS-CoV-2 3CL protease (given as class symbols) is 100 to 1000 nM; at SARS-CoV-2 3CL protease (RapidFire MS) it was 440 nM. For the same compound, the EC50 with SARS-CoV-2 (class symbols) is < 1000 nM.

Turning to `COc1ccc(Nc2nc(=O)n(Cc3cc(Br)c[nH]c3=O)c(=O)n2Cc2cc(F)c(F)c(F)c2)cc1` [Compound I-0310], the IC50 on SARS-CoV-2 3CL protease (given as class symbols) is < 100 nM. The compound further displayed an EC50 in the test with SARS-CoV-2 (class symbols) of 1000 to 10000 nM.

For the compound `COc1ccc(Nc2nc(=O)n(Cc3ccc[nH]c3=O)c(=O)n2Cc2cc(F)cc(Cl)c2)cc1` [Compound I-0316], at SARS-CoV-2 3CL protease (given as class symbols), the IC50 was < 100 nM. Moreover, the EC50 with SARS-CoV-2 (class symbols) was in the range of 1000 to 10000 nM.

`COc1ccc(Nc2nc(=O)n(Cc3cc(-c4ccccc4)c[nH]c3=O)c(=O)n2Cc2cc(F)c(F)c(F)c2)cc1` [Compound I-0318]: the IC50 at SARS-CoV-2 3CL protease (given as class symbols) is 100 to 1000 nM; at SARS-CoV-2 3CL protease (RapidFire MS), 110 nM. Further, the values for the EC50 in the test with SARS-CoV-2 (CellTiter-Glo 2.0) and in the test on SARS-CoV-2 (class symbols) were 1360 nM and 1000 to 10000 nM, respectively.

Consider `COc1ccc(Nc2nc(=O)n(Cc3ccc[nH]c3=O)c(=O)n2Cc2cc(F)c(F)cc2F)cc1` [Compound I-0320], for which, on SARS-CoV-2 3CL protease (given as class symbols), the IC50 is < 100 nM. The compound further registered an EC50 in the test on SARS-CoV-2 (class symbols) of 1000 to 10000 nM.

For the compound `COc1ccc(Nc2nc(=O)n(Cc3ccc[nH]c3=O)c(=O)n2Cc2ccc(Cl)s2)cc1` [Compound I-0321], the IC50 is 1000 to 10000 nM at SARS-CoV-2 3CL protease (given as class symbols) and 2100 nM at SARS-CoV-2 3CL protease (RapidFire MS). Also, in the test with SARS-CoV-2 (class symbols), the EC50 was < 1000 nM.

In the case of `O=c1[nH]cccc1Cn1c(=O)nc(-c2ccccc2)n(Cc2cc(F)c(F)c(F)c2)c1=O` [Compound I-0329], the IC50 at SARS-CoV-2 3CL protease (RapidFire MS) is 2000 nM. The EC50 in the test with SARS-CoV-2 (CellTiter-Glo 2.0) worked out at 5100 nM.

As to `O=c1[nH]cccc1Cn1c(=O)nc(Nc2ccc(O)cc2Cl)n(Cc2cc(F)c(F)c(F)c2)c1=O` [Compound I-0330], the IC50 at SARS-CoV-2 3CL protease (given as class symbols) was < 100 nM. This compound came in with an EC50 in the test on SARS-CoV-2 (class symbols) of 1000 to 10000 nM.

`COc1ccc(Nc2nc(=O)n(Cc3ccc[nH]c3=O)c(=O)n2Cc2ccc(F)c(C#N)c2)c(Cl)c1` [Compound I-0331]: the IC50 at SARS-CoV-2 3CL protease (given as class symbols) is < 100 nM. The compound further showed an EC50 in the test on SARS-CoV-2 (class symbols) of 1000 to 10000 nM.

For the compound `COc1ccc(Nc2nc(=O)n(Cc3ccc[nH]c3=O)c(=O)n2Cc2ccc(F)c(C#N)c2)c(F)c1` [Compound I-0332], the concentration for half-maximal inhibition (IC50) on SARS-CoV-2 3CL protease (given as class symbols) was < 100 nM. This compound also showed an EC50 in the test on SARS-CoV-2 (class symbols) of 1000 to 10000 nM.

`COc1ccc(Nc2nc(=O)n(Cc3ncn(C)n3)c(=O)n2Cc2cc(F)c(F)c(F)c2)cc1` [Compound I-0335]: the IC50 at SARS-CoV-2 3CL protease (given as class symbols) lay within 100 to 1000 nM. The compound further showed an EC50 in the test with SARS-CoV-2 (class symbols) of 1000 to 10000 nM.

Take `COc1ccc(Nc2nc(=O)n(Cc3ncc(C)s3)c(=O)n2Cc2cc(F)c(F)c(F)c2)cc1` [Compound I-0339]: the IC50 on SARS-CoV-2 3CL protease (given as class symbols) was 100 to 1000 nM; at SARS-CoV-2 3CL protease (RapidFire MS) it was 610 nM. In addition, the EC50 with SARS-CoV-2 (CellTiter-Glo 2.0) was 8000 nM; in the test with SARS-CoV-2 (class symbols), 1000 to 10000 nM.

For `COc1ccc(Nc2nc(=O)n(-c3cncc4ccncc34)c(=O)n2Cc2cc(F)c(F)c(F)c2)cc1` [Compound I-0344], on SARS-CoV-2 3CL protease (given as class symbols), the IC50 was < 100 nM. In addition, the EC50 in the test with SARS-CoV-2 (class symbols) is < 1000 nM.

On to `COc1ccc(Nc2nc(=O)n(Cc3ncn(C)n3)c(=O)n2Cc2cc(F)c(F)c(F)c2)c(Cl)c1` [Compound I-0346], for which, on SARS-CoV-2 3CL protease (given as class symbols), the IC50 was < 100 nM. In addition, the EC50 in the test with SARS-CoV-2 (class symbols) was < 1000 nM.

Take `N#Cc1cc(Cn2c(Nc3ccc4c(c3)CCO4)nc(=O)n(-c3cncc(Cl)c3)c2=O)ccc1F` [Compound I-0348]: the IC50 at SARS-CoV-2 3CL protease (given as class symbols) is < 100 nM. In the test on SARS-CoV-2 (class symbols), the EC50 was < 1000 nM.

Turning to `N#Cc1cc(Cn2c(Nc3ccc4c(c3)CCO4)nc(=O)n(-c3cncc(C(F)F)c3)c2=O)ccc1F` [Compound I-0349], on SARS-CoV-2 3CL protease (given as class symbols), the IC50 is < 100 nM. Moreover, the EC50 in the test on SARS-CoV-2 (class symbols) was in the range of 1000 to 10000 nM.

For `N#Cc1cc(Cn2c(Nc3ccc4c(c3)CCO4)nc(=O)n(-c3cncc(F)c3)c2=O)ccc1F` [Compound I-0350], the IC50 at SARS-CoV-2 3CL protease (given as class symbols) was < 100 nM. For the same compound, the EC50 in the test on SARS-CoV-2 (class symbols) is < 1000 nM.
